Measurements from publication PMC3229523, “Identification of Lactoferricin B Intracellular Targets Using an Escherichia coli Proteome Chip” (PLoS ONE, 2011).
Ends that are not written are not given here. * marks the point of attachment. Biotin = O=C1N[C@H]2[C@H](CS[C@H]2CCCCC(=O)*)N1

Key:
Adi = experiment: Fluorescence polarization assay, Adi; type: binding, E. coli; conditions: 100 nM DyLight 549-labeled LfcinB; protein 0.025-0.4 µM; data not shown
Description: (§1) FP assays, investigations of the binding between two molecules in a homogeneous aqueous environment, were used to validate the identified 153 proteins. […] If a fluorophore only binds to a small molecule, such as peptide, the rotation of the complex is fast and the light emits in a different plane of polarization. Therefore, the degree of polarization is low. However, once a fluorophore binds to a large molecule, the bound complex is stimulated with polarized light. The light emits in the same polarized plane, and the complex is maintained in the same plane of polarization, causing an increase in the degree of polarization [22]–[24]. The amount of molecules binding to a fluorophore influences the degree of polarization. In this study, LfcinB was labeled with DyLight™ 549 as a reference value. Once the protein bound to LfcinB, like a fluorophore binds to a large molecule, a high degree of polarization is expected.
(§2) Before the assays, LfcinB was labeled with DyLight™ 549 and tested proteins were quantified with a Pierce® bicinchoninic acid (BCA™) protein assay (Thermo). To label the LfcinB, DyLight™ 549-NHS ester and LfcinB (68∶1, mole/mole) were mixed in PBS at room temperature for 1 h, a D-Salt™ polyacrylamide desalting column (Thermo) was used to remove excess dye and the labeling efficiency of the eluted solution was calculated. […]

MetL = experiment: Fluorescence polarization assay, MetL; type: binding, E. coli
Description: as §1, §2

[1] = tested on: isogenic parent strain and the knockout strains; experiment: Knockout assay, isogenic parent and knockout strains together; type: cell-based, E. coli K-12; conditions: 32 µM LfcinB, LB medium, 37°C
Description: (§3) The E. coli K-12 BW25113 (isogenic parent) strain and the 16 knockout strains were obtained from the E. coli Genetic Resources at the Coli Genetic Stock Center (CGSC) at Yale University. The strains were inoculated into LB medium, and incubated at 37°C with shaking. After 16 h of incubation, the cultures were diluted to approximately 10^7 CFU/ml with LB medium. Thirty-two µM of LfcinB were then added to the cultures in a 96-well plate. PBS was used as a negative control. Cultures with LfcinB or PBS were then incubated at 37°C with shaking in a microplate reader and the growth was observed by measuring the OD595 value every 20 min for 7 h 20 min.

[2] = tested on: E. coli K-12 BW25113 (isogenic parent) strain; experiment: Knockout assay, isogenic parent strain; type: cell-based; conditions: 32 µM LfcinB, LB medium, 37°C, approx. 10^7 CFU/ml
Description: as §3

Ppc = experiment: Fluorescence polarization assay, Ppc; type: binding, E. coli; conditions: 100 nM DyLight 549-labeled LfcinB; protein 0.025-0.4 µM; data not shown
Description: as §1, §2

[3] = tested on: Bovine Serum Albumin, BSA; experiment: Fluorescence polarization assay, BSA negative control; type: binding; conditions: BSA 0.4, 0.2, 0.1, 0.05 µM (negative control); 100 nM labeled LfcinB
Description: as §1, §2

CyaA = tested on: CyaA
Description: as §1, §2

bacteria = conditions: cited from earlier work
Description: Natural antimicrobial peptides are pervasive in plants, insects and animals.

GldA = experiment: Fluorescence polarization assay, GldA; type: binding, E. coli; conditions: 100 nM DyLight 549-labeled LfcinB; protein 0.025-0.4 µM; data not shown
Description: as §1, §2

NrdD = experiment: Fluorescence polarization assay, NrdD; type: binding, E. coli; conditions: 100 nM DyLight 549-labeled LfcinB; protein 0.025-0.4 µM; data not shown
Description: as §1, §2

RecC = experiment: Fluorescence polarization assay, RecC; type: binding, E. coli; conditions: 100 nM DyLight 549-labeled LfcinB; protein 0.025-0.4 µM; data not shown
Description: as §1, §2

YcaO = experiment: Fluorescence polarization assay, YcaO; type: binding, E. coli; conditions: 100 nM DyLight 549-labeled LfcinB; protein 0.025-0.4 µM; data not shown
Description: as §1, §2

NrdF = experiment: Fluorescence polarization assay, NrdF; type: binding, E. coli
Description: as §1, §2

YhaN = experiment: Fluorescence polarization assay, YhaN; type: binding, E. coli; conditions: 100 nM DyLight 549-labeled LfcinB; protein 0.025-0.4 µM; data not shown
Description: as §1, §2

E. coli MG1655 = experiment: Pyruvate assay: E. coli growth (OD595); type: cell-based; conditions: 32 µM LfcinB
Description: To confirm one of the mechanisms of LfcinB action in pyruvate metabolism, a minimal medium was chosen; because general LB medium contains many carbon sources, including sugars, alcohols and organic acids, this minimal medium allowed glucose to be the sole carbon source in the pyruvate assays. Minimal medium consisted of 6 g/l NaH2PO4, 3 g/l K2HPO4, 0.5 g/l NaCl, 0.12 g/l MgSO4, 1 g/l NH4Cl, 0.01 g/l CaCl2 and 5 g/l glucose. A 0.22 µm filter (Millex®GS, Millipore) was used to filter the minimal medium. E. coli MG1655 was first inoculated into the minimal medium and incubated at 37°C for 16 h with shaking as a preculture. The preculture was diluted 100-fold with the minimal medium in 96-well plate, and 32 µM of LfcinB were added. The mixture was incubated with shaking in a microplate reader at 37°C, and the absorbance was measured after 9 h. Finally, the mixture was harvested by centrifugation at 3452 g for 5 min at 4°C, and each supernatant was removed. The pellets were then stored at −80°C.

Lactoferricin B (Biotin-FKCRRWQWRMKKLGAPSITCVRRAF; ends and bridges not checked) [LfcinB]
binding to Adi (Adi): confirmed to bind to LfcinB
degree of polarization vs BSA (MetL; 100 nM DyLight 549-labeled LfcinB, protein 0.025-0.4 µM, PBS, 0.005% BSA, 0.01% Triton X-100, room temperature, 1 h, Figure 5C): higher polarization than the negative control
concentration dependence of polarization (MetL; MetL, two-fold dilution 0.4 µM to 0.025 µM, 100 nM labeled LfcinB): increased with increasing concentrations of these 4 proteins
growth curves, initial part (0–1.5 h), with vs without LfcinB ([1]; 0–1.5 h): higher growth curves than the strains grown without LfcinB
slopes of growth curves, middle part (2–4 h), with vs without LfcinB ([1]; 2–4 h): lower than the slopes of the strains without LfcinB
growth with LfcinB [2]: inhibited the growth of the isogenic parent strain
binding to Ppc (Ppc): confirmed to bind to LfcinB
concentration dependence of polarization [3]: remained constant with increasing concentrations of BSA
degree of polarization vs BSA (CyaA; 100 nM DyLight 549-labeled LfcinB, protein 0.025-0.4 µM, PBS, 0.005% BSA, 0.01% Triton X-100, room temperature, 1 h, Figure 5D): higher polarization than the negative control
concentration dependence of polarization (CyaA; CyaA, two-fold dilution 0.4 µM to 0.025 µM, 100 nM labeled LfcinB): increased with increasing concentrations of these 4 proteins
bacterial growth inhibition and membrane effect (bacteria): inhibits bacterial growth by impeding intracellular activities without destroying membrane integrity or penetrating the cytoplasmic membrane
mechanism of antimicrobial activity (bacteria): pore-forming mechanism
binding to GldA (GldA): confirmed to bind to LfcinB
binding to NrdD (NrdD): confirmed to bind to LfcinB
binding to RecC (RecC): confirmed to bind to LfcinB
binding to YcaO (YcaO): confirmed to bind to LfcinB
degree of polarization vs BSA (NrdF; 100 nM DyLight 549-labeled LfcinB, protein 0.025-0.4 µM, PBS, 0.005% BSA, 0.01% Triton X-100, room temperature, 1 h, Figure 5B): higher polarization than the negative control
concentration dependence of polarization (NrdF; NrdF, two-fold dilution 0.4 µM to 0.025 µM, 100 nM labeled LfcinB): increased with increasing concentrations of these 4 proteins
binding to YhaN (YhaN): confirmed to bind to LfcinB
Value of OD595 after 9 h incubation (E. coli MG1655; minimal medium with glucose, 37°C, 9 h, E. coli without LfcinB 0.325±0.011): 0.267±0.011
Initial value of OD595 (E. coli MG1655; minimal medium with glucose, 37°C, E. coli without LfcinB 0.057±0.002): 0.058±0.001
amount (OD595) of E. coli after 9 h with vs without LfcinB (E. coli MG1655; minimal medium, 9 h): lower than the level of E. coli without LfcinB
